{"source": "patent US20070275382A1", "about": "“Biomarkers for the Efficacy of Somatostatin Analogue Treatment” (priority 2003, published 2007)", "test_system": "Pituitary gland", "experiment": "Microarray gene expression profiling (HG-U95A), pituitary", "format": "in vivo, cynomolgus monkeys", "details": "100 μg/animal/day s.c., 14 days", "procedure": "Origin of tissue and processing. Male and female cynomolgus monkeys received subcutaneously pasireotide (100 μg/animal/day) or the vehicle for 14 days. On day 15, all animals were sacrificed and tissues for RNA extraction were immediately snap-frozen and kept at −80° C. until processing.\nRNA expression profiling was conducted by means of the HG-U95A gene expression probe array (Affymetrix; Santa Clara, Calif. USA), containing more than 12,600 probe sets interrogating primarily full-length human genes and also some control probe sets. The experiment was conducted according to the recommendations of the manufacturer. Briefly, total RNA was obtained by acid guanidinium thiocyanate-phenol-chloroform extraction (Trizol®, Invitrogen Life Technologies, San Diego, Calif. USA) from each frozen tissue section. The total RNA was then purified on an affinity resin (Rneasy®, Qiagen) and quantified. Double stranded cDNA was synthesized with a starting amount of approximately 5 μg full-length total RNA using the Superscript® Choice System (Invitrogen Life Technologies, Carlsbad, Calif. USA) in the presence of a T7-(dT)24 DNA oligonucleotide primer. Following synthesis, the cDNA was purified by phenol/chloroform/isoamyl alcohol extraction and ethanol precipitation. The purified cDNA was then transcribed in vitro using the BioArray® High Yield RNA Transcript Labeling Kit (ENZO, Farmingdale, N.Y. USA) in the presence of biotinylated ribonucleotides form biotin labelled cRNA. The labelled cRNA was then purified on an affinity resin (Rneasy®, Qiagen), quantified and fragmented. An amount of approximately 10 μg labelled cRNA was hybridized for 16 hours at 45° C. to an expression probe array. The array was then washed and stained twice with streptavidin-phycoerythrin (Molecular Probes,) using the GeneChip® Fluidics Workstation 400 (Affymetrix, Santa Clara, Calif. USA). The array was then scanned twice using a confocal laser scanner (GeneArray® Scanner, Agilent, Palo Alto, Calif. USA) resulting in one scanned image. This resulting “.dat-file” was processed using the MAS4 program (Affymetrix) into a “.cel-file”. The “.cel file” was captured and loaded into the Affymetrix GeneChip® Laboratory Information Management System (LIMS). The LIMS database is connected to a UNIX Sun Solaris server through a network filing system that allows for the average intensities for all probes cells (CEL file) to be downloaded into an Oracle database (NPGN). Raw data was converted to expression levels using a “target intensity” of 150. The data were evaluated for quality control and loaded in the GeneSpring® software 4.2.4 (Silicon Genetics, Calif. USA) for analysis.\nOn the human Affymetrix HGU95Av2 chip, probe sets for individual genes contain 20 oligonucleotide pairs, each composed of a “perfect match” 25-mer and a “mismatch” 25-mer differing from the “perfect” match oligonucleotide at a single base. After probe labelling, hybridization, and laser scanning, the expression level was estimated by averaging the differences in signal intensity measured by oligonucleotide pairs of a given probe (AvgDiff value). The fold changes and directions were calculated for selected genes, from the differences of the AvgDiff values between controls and treated.\nTo identify genes that were impacted by pasireotide, the dataset was initially filtered to exclude in a first wave of analysis, genes whose values were systematically in the lower expression ranges where the experimental noise is high (at least 80 in a number of experiments corresponding to the smallest number of replicas of any experimental point). In a second round of selection a threshold p-value of 0.05 (based on a t-test) identified differences between treated and control based on a two component error model (Global Error Model) and, whenever possible, with a stepdown correction for multi-hypothesis testing (Benjamini and Hochberg false discovery rate). […]", "note": "*1 amine or outer side, *2 acyl side, *3 side chain or, on linkers, in order; H or OH if unused. Where a SMILES comes first, the peptide text is derived from it. Side-chain parts run from the residue outwards. [ ]: non-standard residue; d: D form. The star is where a group is joined. Ethylenediamine = C(CN[*:2])N[*:1]; Hyp = O=C(O)[CH]1C[CH](O)CN1; Phg = N[CH](C(=O)O)c1ccccc1; CO = O=C([*:1])[*:2]; Bn = c1ccc(C*)cc1", "data": [{"smiles": "NCCCCC1NC(=O)C(Cc2c[nH]c3ccccc23)NC(=O)C(c2ccccc2)NC(=O)C2CC(OC(=O)NCCN)CN2C(=O)C(Cc2ccccc2)NC(=O)C(Cc2ccc(OCc3ccccc3)cc2)NC1=O", "note": "(stereo not drawn) [Pasireotide, cyclo[4-(NH2—C2H4—NH—CO—O)Pro-Phg-DTrp-Lys-Tyr(4-Bzl)-Phe]] (cyclo(F[Hyp]([CO-Ethylenediamine])[Phg]WKY(Bn)); configuration not given here)", "values": [{"measurement": "GFR bound protein 10 transcript fold change", "setting": "↑ vs control", "value": "↑ x1.5"}, {"measurement": "GLUR 2, precursor transcript fold change", "setting": "↑ vs control", "value": "↑ x1.5"}, {"measurement": "GTP-binding protein 11 transcript fold change", "setting": "↑ vs control", "value": "11 ↑ x2.5"}, {"measurement": "Glucagon receptor transcript fold change", "setting": "↑ vs control", "value": "↑ x7"}, {"measurement": "IFN stimulated gene transcript fold change", "setting": "↑ vs control", "value": "↑ x3.5"}, {"measurement": "IFNγ-inducible protein 30 (IP30) transcript fold change", "setting": "↑ vs control", "value": "30 (IP30) ↑ x1.5"}, {"measurement": "IGFBP, acid labile subunit transcript fold change", "setting": "↑ vs control", "value": "subunit ↑ x3.5"}, {"measurement": "IP3 receptor, type 1 transcript fold change", "setting": "↑ vs control", "value": "↑ x1.5"}, {"measurement": "JAK 1 transcript fold change", "setting": "↑ vs control", "value": "JAK 1 ↑ x2"}, {"measurement": "MAPKKK5 transcript fold change", "setting": "↑ vs control", "value": "MAPKKK5 ↑ x2"}, {"measurement": "Neuroblastoma-amplified protein transcript fold change", "setting": "↑ vs control", "value": "↑ x1.5"}, {"measurement": "PKC inhibitor transcript fold change", "setting": "↑ vs control", "value": "PKC inhibitor ↑ x2"}, {"measurement": "PP 1, regulatory (inhibitor) subunit 5 transcript fold change", "setting": "↑ vs control", "value": "↑ x3.5"}, {"measurement": "PTP, receptor type, T transcript fold change", "setting": "↑ vs control", "value": "↑ x2"}, {"measurement": "Programmed cell death 6 transcript fold change", "setting": "↑ vs control", "value": "death 6 ↑ x1.5"}, {"measurement": "Putative Ca++ transporting ATPase transcript fold change", "setting": "↑ vs control", "value": "↑ x2"}, {"measurement": "RAB 5C, member RAS oncogene family transcript fold change", "setting": "↑ vs control", "value": "↑ x3"}, {"measurement": "Rab geranyltransferase, β subunit transcript fold change", "setting": "↑ vs control", "value": "β subunit ↑ x2"}, {"measurement": "Receptor (calcitonin) activity modifying protein 2 precursor transcript fold change", "setting": "↑ vs control", "value": "x3.5"}, {"measurement": "Receptor tyrosine kinase-like orphan receptor 2 transcript fold change", "setting": "↑ vs control", "value": "receptor 2 ↑ x2"}, {"measurement": "Regulator of G-protein signalling 9 transcript fold change", "setting": "↑ vs control", "value": "↑ x2"}, {"measurement": "S-phase response (cyclin-related) transcript fold change", "setting": "↑ vs control", "value": "(cyclin-related) ↑ x2"}, {"measurement": "SSTR3 transcript fold change", "setting": "↑ vs control", "value": "SSTR3 ↑ x3"}, {"measurement": "Thyroid transcription factor 1 transcript fold change", "setting": "↑ vs control", "value": "factor 1 ↑ x2.5"}, {"measurement": "VEGF B transcript fold change", "setting": "↑ vs control", "value": "VEGF B ↑ x1.5"}, {"measurement": "1-PI-4-phosphate 5-kinase isoform C transcript fold change", "setting": "↓ vs control", "value": "kinase isoform C ↓ x1.5"}, {"measurement": "ATPase, H+/K+ exchanging, α polypeptide transcript fold change", "setting": "↓ vs control", "value": "polypeptide ↓ x5"}, {"measurement": "Arg PTK-binding protein transcript fold change", "setting": "↓ vs control", "value": "protein ↓ x2.5"}, {"measurement": "CD36 antigen transcript fold change", "setting": "↓ vs control", "value": "CD36 antigen ↓ x2"}, {"measurement": "Catenin (cadherin-associated protein), α 1 (102 kD) transcript fold change", "setting": "↓ vs control", "value": "α 1 (102 kD) ↓ x1.5"}, {"measurement": "Cholecystokinin receptor transcript fold change", "setting": "↓ vs control", "value": "receptor ↓ x4.5"}, {"measurement": "Cholinergic receptor, muscarinic 3 transcript fold change", "setting": "↓ vs control", "value": "muscarinic 3 ↓ x3"}, {"measurement": "Cholinergic receptor, nicotinic, β polypeptide 4 transcript fold change", "setting": "↓ vs control", "value": "4 ↓ x2"}, {"measurement": "Cyclin F transcript fold change", "setting": "↓ vs control", "value": "Cyclin F ↓ x2"}, {"measurement": "Dual specificity phosphatase 8 transcript fold change", "setting": "↓ vs control", "value": "phosphatase 8 ↓ x3"}, {"measurement": "EGFRBP 2 transcript fold change", "setting": "↓ vs control", "value": "EGFRBP 2 ↓ x1.5"}, {"measurement": "FGFR 2 transcript fold change", "setting": "↓ vs control", "value": "FGFR 2 ↓ x2"}, {"measurement": "Fms-related tyrosine kinase 1 (VEGF/vascular permeability factor receptor) transcript fold change", "setting": "↓ vs control", "value": "receptor) ↓ x1.5"}, {"measurement": "Forkhead box O3A transcript fold change", "setting": "↓ vs control", "value": "↓ x1.5"}, {"measurement": "G-protein coupled receptor 49 transcript fold change", "setting": "↓ vs control", "value": "receptor 49 ↓ x2"}, {"measurement": "GTP-binding protein (G protein), q polypeptide transcript fold change", "setting": "↓ vs control", "value": "↓ x2.5"}, {"measurement": "GTP-binding protein like-1 transcript fold change", "setting": "↓ vs control", "value": "like-1 ↓ x3"}, {"measurement": "Gastrin receptor transcript fold change", "setting": "↓ vs control", "value": "Gastrin receptor ↓ x2"}, {"measurement": "IFNR2 (α, β and ω) transcript fold change", "setting": "↓ vs control", "value": "↓ x2.5"}, {"measurement": "IGF-2 transcript fold change", "setting": "↓ vs control", "value": "IGF-2 ↓ x1.5"}, {"measurement": "IP-4-phosphatase, type 1, isoform b transcript fold change", "setting": "↓ vs control", "value": "type 1, isoform b ↓ x2"}, {"measurement": "K+ channel, subfamily K, member 3 (TASK) transcript fold change", "setting": "↓ vs control", "value": "↓ x4"}, {"measurement": "K+ voltage-gated channel, Shab-related subfamily, member 1 transcript fold change", "setting": "↓ vs control", "value": "↓ x2"}, {"measurement": "PDGFβ transcript fold change", "setting": "↓ vs control", "value": "PDGFβ ↓ x2"}, {"measurement": "PI transfer protein, β transcript fold change", "setting": "↓ vs control", "value": "↓ x2.5"}, {"measurement": "PI-3-kinase, catalytic, α polypeptide transcript fold change", "setting": "↓ vs control", "value": "α polypeptide ↓ x3"}, {"measurement": "PI-3-kinase, catalytic, δ polypeptide transcript fold change", "setting": "↓ vs control", "value": "↓ x2"}, {"measurement": "PLCγ 1 transcript fold change", "setting": "↓ vs control", "value": "PLCγ 1 ↓ x1.5"}, {"measurement": "Phosphatase and tensin homolog (mutated in multiple advanced cancers 1) transcript fold change", "setting": "↓ vs control", "value": "↓ x3.5"}, {"measurement": "Rab3 GTPase-activating protein, non catalytic subunit transcript fold change", "setting": "↓ vs control", "value": "catalytic subunit ↓ x2"}, {"measurement": "Rab geranylgeranyl transferase, α subunit transcript fold change", "setting": "↓ vs control", "value": "↓ x1.5"}, {"measurement": "SHB adaptor protein (a Src homology 2 protein) transcript fold change", "setting": "↓ vs control", "value": "↓ x2.5"}, {"measurement": "STAT 1, 91kδ transcript fold change", "setting": "↓ vs control", "value": "STAT 1, 91kδ ↓ x2"}, {"measurement": "Soluble adenylyl cyclase transcript fold change", "setting": "↓ vs control", "value": "cyclase ↓ x2"}, {"measurement": "TNFR subfamily, member 14; herpesvirus entry mediator transcript fold change", "setting": "↓ vs control", "value": "entry mediator ↓ x2.5"}, {"measurement": "TNFR-associated factor 2 transcript fold change", "setting": "↓ vs control", "value": "factor 2 ↓ x4"}, {"measurement": "Thrombospondin-p50 transcript fold change", "setting": "↓ vs control", "value": "↓ x2"}]}]}
